Target: human kinase Mps-1 (Homo sapiens (Human), UniProt P33981)
Assay: Mps-1 Kinase Assay (TR-FRET)
Assay type: biochemical
Conditions: N-terminally GST-tagged human full length recombinant Mps-1; 10 μM ATP; 1 μM peptide substrate; 60 min at 22° C.; read-out: Mps1 IC50
Procedure: The human kinase Mps-1 phosphorylates a biotinylated substrate peptide. Detection of the phosphorylated product is achieved by time-resolved fluorescence resonance energy transfer (TR-FRET) from Europium-labelled anti-phospho-Serine/Threonine antibody as donor to streptavidin labelled with cross-linked allophycocyanin (SA-XLent) as acceptor. Compounds are tested for their inhibition of the kinase activity.
N-terminally GST-tagged human full length recombinant Mps-1 kinase (purchased from Invitrogen, Karslruhe, Germany, cat. no PV4071) was used. As substrate for the kinase reaction a biotinylated peptide of the amino-acid sequence […] (C-terminus in amide form, purchased from Biosynthan GmbH, Berlin) was used.
The concentration of Mps-1 in the assay was adjusted to the activity of the enzyme lot and was chosen appropriate to have the assay in the linear range, typical enzyme concentrations were in the range of about 1 nM (final conc. in the 5 μl assay volume).
The resulting mixture was incubated 1 h at 22° C. to allow the binding of the phosphorylated peptide to the anti-phospho(Ser/Thr)-Europium-antibody. Subsequently the amount of phosphorylated substrate was evaluated by measurement of the resonance energy transfer from the Europium-labelled anti-phospho(Ser/Thr) antibody to the Streptavidin-XLent.

human kinase Mps-1, sequence (P33981 whole entry): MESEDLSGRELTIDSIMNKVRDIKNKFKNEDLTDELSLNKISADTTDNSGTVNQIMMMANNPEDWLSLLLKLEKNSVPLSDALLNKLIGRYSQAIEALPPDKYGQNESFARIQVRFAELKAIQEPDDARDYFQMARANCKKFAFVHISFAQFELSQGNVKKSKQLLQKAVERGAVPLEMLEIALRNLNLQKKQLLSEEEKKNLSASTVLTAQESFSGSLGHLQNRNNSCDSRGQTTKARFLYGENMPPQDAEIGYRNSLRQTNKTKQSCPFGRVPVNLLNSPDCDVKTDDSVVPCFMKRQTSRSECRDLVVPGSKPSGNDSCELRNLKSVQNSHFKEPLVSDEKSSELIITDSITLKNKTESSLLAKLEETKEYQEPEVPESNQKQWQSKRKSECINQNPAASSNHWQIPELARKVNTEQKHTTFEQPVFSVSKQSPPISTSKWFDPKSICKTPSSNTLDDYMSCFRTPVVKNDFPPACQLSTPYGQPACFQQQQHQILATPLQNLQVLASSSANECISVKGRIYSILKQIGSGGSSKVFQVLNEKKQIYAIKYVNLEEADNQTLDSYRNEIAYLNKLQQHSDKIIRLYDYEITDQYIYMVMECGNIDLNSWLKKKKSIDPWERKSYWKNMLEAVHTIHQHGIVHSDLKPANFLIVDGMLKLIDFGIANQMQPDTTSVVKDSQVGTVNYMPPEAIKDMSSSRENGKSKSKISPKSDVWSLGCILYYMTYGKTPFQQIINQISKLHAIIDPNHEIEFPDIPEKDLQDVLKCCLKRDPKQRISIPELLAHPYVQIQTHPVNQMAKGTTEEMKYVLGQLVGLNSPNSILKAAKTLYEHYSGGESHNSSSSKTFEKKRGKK

Row | Compound | IC50
1 | CC(C)C[S+]([O-])c1nc(-c2ccccc2)cn2c(-c3ccc(C(=O)NC4CC4)cc3)cnc12 (racemic) [Example 22A, (RS) N-cyclopropyl-4-[8-(isobutylsulfinyl)-6-phenylimidazo[1,2-a]pyrazin-3-yl]benzamide] | 0.0127 µM
2 | C=Cc1ccc(-c2cn3c(-c4ccc(-c5cnc(C6CC6)[nH]5)cc4)cnc3c(SC)n2)cc1 [Example 30, 3-[4-(2-cyclopropyl-1H-imidazol-5-yl)phenyl]-8-(methylsulfanyl)-6-(4-vinylphenyl)imidazo[1,2-a]pyrazine] | 3.1 µM
3 | O=C(NC1CC1)c1ccc(-c2cnc3c(SCC(F)(F)F)nc(-c4ccccc4)cn23)cc1 [Example 25, N-cyclopropyl-4-{6-phenyl-8-[(2,2,2-trifluoroethyl)sulfanyl]imidazo[1,2-a]pyrazin-3-yl}benzamide] | 0.0263 µM
4 | O=C(NC1CC1)c1ccc(-c2cnc3c(SCCCCO)nc(-c4ccccc4)cn23)cc1 [Example 35, N-cyclopropyl-4-{8-[(4-hydroxybutyl)sulfanyl]-6-phenylimidazo[1,2-a]pyrazin-3-yl}benzamide] | 0.0037 µM
5 | CS(=O)(=O)c1nc(-c2ccccc2)cn2c(-c3ccc(C(=O)NC4CC4)cc3)cnc12 (racemic) [Example 3A, N-Cyclopropyl-4-[8-(methylsulfonyl)-6-phenylimidazo[1,2-a]pyrazin-3-yl]benzamide] | 0.006 µM
6 | CSc1nc(Br)cn2c(-c3ccc(C(=O)NC4CC4)cc3)cnc12 [Example 1, 4-[6-Bromo-8-(methylsulfanyl)imidazo[1,2-a]pyrazin-3-yl]-N-cyclopropylbenzamide] | 0.607 µM
7 | O=C(NC1CC1)c1ccc(-c2cnc3c(SCC4CCCO4)nc(-c4ccccc4)cn23)cc1 (racemic) [Example 12, (RS) N-Cyclopropyl-4-{6-phenyl-8-[(tetrahydrofuran-2-ylmethyl)sulfanyl]imidazo[1,2-a]pyrazin-3-yl}benzamide] | 0.008 µM
8 | (1S or 1R)-1-(4-{3-[4-(2-cyclopropyl-1H-imidazol-5-yl)phenyl]-8-(methylsulfanyl)imidazo[1,2-a]pyrazin-6-yl}phenyl)ethanol [Example 34C] | 0.095 µM
9 | CCCCCSc1nc(-c2ccccc2)cn2c(-c3ccc(C(=O)NC4CC4)cc3)cnc12 [Example 17, N-cyclopropyl-4-[8-(pentylsulfanyl)-6-phenylimidazo[1,2-a]pyrazin-3-yl]benzamide] | 0.0798 µM
10 | O=C(NC1CC1)c1ccc(-c2cnc3c(S(=O)(=O)CC(F)(F)F)nc(-c4ccccc4)cn23)cc1 [Example 26B, N-cyclopropyl-4-{6-phenyl-8-[(2,2,2-trifluoroethyl)sulfonyl]imidazo[1,2-a]pyrazin-3-yl}benzamide] | 0.0081 µM
11 | CSc1nc(-c2ccncc2)cn2c(-c3ccc(-c4cnc(C5CC5)[nH]4)cc3)cnc12 [Example 31, 3-[4-(2-cyclopropyl-1H-imidazol-5-yl)phenyl]-8-(methylsulfanyl)-6-(pyridin-4-yl)imidazo[1,2-a]pyrazine] | 0.125 µM
12 | CSc1nc(-c2ccccc2)cn2c(-c3ccc(-c4cnc(C5CC5)[nH]4)cc3)cnc12 [Example 29, 3-[4-(2-cyclopropyl-1H-imidazol-5-yl)phenyl]-8-(methylsulfanyl)-6-phenylimidazo[1,2-a]pyrazine] | 0.544 µM
13 | O=C(NC1CC1)c1ccc(-c2cnc3c(S(=O)(=O)Cc4ccco4)nc(-c4ccccc4)cn23)cc1 [Example 28B, N-cyclopropyl-4-{8-[(2-furylmethyl)sulfonyl]-6-phenylimidazo[1,2-a]pyrazin-3-yl}benzamide] | 0.0071 µM
14 | CCCCS(=O)(=O)c1nc(-c2ccccc2)cn2c(-c3ccc(C(=O)NC4CC4)cc3)cnc12 [Example 9B, 4-[8-(Butylsulfonyl)-6-phenylimidazo[1,2-a]pyrazin-3-yl]-N-cyclopropylbenzamide] | 0.014 µM

From patent US9468642B2, “Imidazopyrazines” (BAYER INTELLECTUAL PROPERTY GMBH, priority 2011, dated 2016)
